Columns and labels:
[1] = molecular target: Sodium-dependent serotonin transporter (Homo sapiens, UniProt P31645); assay: Displacement of labeled paroxetine from 5-HT transporter
[2] = molecular target: T1, 5-hydroxytryptamine receptor 1A (Homo sapiens) (UniProt P08908); assay: Agonist activity at human 5HT1A receptor expressed in CHO cells by [35S]GTPgammaS binding assay; type: functional, cell-based
T1 sequence (whole entry): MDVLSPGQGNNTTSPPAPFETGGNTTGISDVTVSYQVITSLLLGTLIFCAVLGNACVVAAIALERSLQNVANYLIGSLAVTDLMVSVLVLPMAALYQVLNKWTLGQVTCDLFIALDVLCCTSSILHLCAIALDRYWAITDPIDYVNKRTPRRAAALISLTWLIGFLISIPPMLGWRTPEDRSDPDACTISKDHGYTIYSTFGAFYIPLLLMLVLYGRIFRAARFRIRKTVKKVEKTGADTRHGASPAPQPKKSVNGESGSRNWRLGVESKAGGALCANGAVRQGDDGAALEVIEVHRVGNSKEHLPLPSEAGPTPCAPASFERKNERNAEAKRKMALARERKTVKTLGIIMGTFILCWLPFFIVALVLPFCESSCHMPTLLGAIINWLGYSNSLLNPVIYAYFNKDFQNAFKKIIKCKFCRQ

[3] = molecular target: T2, 5-hydroxytryptamine receptor 1A (Homo sapiens, UniProt P08908); assay: Displacement of [3H][…] from human 5HT1A receptor expressed in CHO cells; type: cell-based
T2 sequence (P08908 whole entry): T1 sequence (whole entry)

[4] = molecular target: T2, 5-hydroxytryptamine receptor 1A; assay: Agonist activity at human 5HT1A receptor expressed in CHO cells assessed as inhibition of forskolin-induced adenylate cyclase activity; type: functional, cell-based

Chain of Sodium-dependent serotonin transporter (P31645 whole entry): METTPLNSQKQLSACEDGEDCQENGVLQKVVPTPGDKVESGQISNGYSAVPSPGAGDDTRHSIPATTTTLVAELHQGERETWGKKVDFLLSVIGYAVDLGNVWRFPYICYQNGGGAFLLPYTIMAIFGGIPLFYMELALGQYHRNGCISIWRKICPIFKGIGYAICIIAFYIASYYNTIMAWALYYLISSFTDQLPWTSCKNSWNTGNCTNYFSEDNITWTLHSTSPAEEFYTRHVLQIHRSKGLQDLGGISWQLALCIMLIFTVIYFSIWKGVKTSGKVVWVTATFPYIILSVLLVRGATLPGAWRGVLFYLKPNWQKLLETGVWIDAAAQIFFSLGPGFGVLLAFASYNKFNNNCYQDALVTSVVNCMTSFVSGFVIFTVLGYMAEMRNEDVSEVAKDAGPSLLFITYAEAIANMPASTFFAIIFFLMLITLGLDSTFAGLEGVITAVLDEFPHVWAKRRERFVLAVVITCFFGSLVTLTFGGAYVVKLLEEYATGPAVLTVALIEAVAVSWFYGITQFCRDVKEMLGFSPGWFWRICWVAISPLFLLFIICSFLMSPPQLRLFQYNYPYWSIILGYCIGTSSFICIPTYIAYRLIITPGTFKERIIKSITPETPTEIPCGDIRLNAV

| SMILES | Ki [1] [nM] | Emax [2] [%] | Ki [3] [nM] | EC50 [4] [nM] | IC50 [4] [nM] |
| --- | --- | --- | --- | --- | --- |
| O=C1NCc2ccc3c(c21)CC(N(CCCCc1c[nH]c2ccc(F)cc12)CC1CC1)CO3 (racemic) | 139 | 87 | 19 | 49 | – |
| O=C1NCc2ccc3c(c21)CC(N(CCCc1c[nH]c2ccc(F)cc12)C1CCC1)CO3 (racemic) | 63 | – | 101 | 350 | – |
| CN(CCCc1c[nH]c2ccc(F)cc12)C1COc2ccc3c(c2C1)C(=O)NC3 (racemic) | 9 | 80 | 22 | 75 | – |
| CCN(CCCc1c[nH]c2ccc(F)cc12)C1COc2ccc3c(c2C1)C(=O)NC3 (racemic) | 8 | 78 | 2 | 28 | – |
| O=C1NCCc2cc(F)c3c(c21)CC(N(CCCc1c[nH]c2ccc(F)cc12)CC1CC1)CO3 (racemic) | 112 | 62 | 50 | 101 | – |
| CC(C)N(CCCc1c[nH]c2ccc(F)cc12)C1COc2ccc3c(c2C1)C(=O)NCC3 (racemic) | 8 | 94 | 129 | 252 | – |
| CCCN(CCCc1c[nH]c2ccc(F)cc12)C1COc2ccc3c(c2C1)C(=O)NCC3 (racemic) | 61 | 100 | 13 | 34 | – |
| O=C1NCc2ccc3c(c21)CC(N(CCCc1c[nH]c2ccc(F)cc12)C(=O)c1ccccc1)CO3 (racemic) | 31 | 96 | 85 | 436 | – |
| O=C1NCCc2ccc3c(c21)CC(N(CCCc1c[nH]c2ccc(F)cc12)CC1CC1)CO3 (racemic) | 26 | 91 | 19 | 36 | – |
| CC(C)CN(CCCc1c[nH]c2ccc(F)cc12)C1COc2ccc3c(c2C1)C(=O)NC3 (racemic) | 617 | – | – | – | – |
| O=C1NCCc2ccc3c(c21)CC(N(CCCc1c[nH]c2ccc(F)cc12)C1CCC1)CO3 (racemic) | 28 | 77 | 95 | 54 | – |
| CCN(CCCc1c[nH]c2ccc(F)cc12)C1COc2ccc3c(c2C1)C(=O)NCC3 (racemic) | 30 | 97 | 6 | 9 | – |
| CC(C)CN(CCCc1c[nH]c2ccc(F)cc12)C1COc2ccc3c(c2C1)C(=O)NCC3 (racemic) | 184 | – | 927 | – | – |
| O=C1NCc2ccc3c(c21)CC(NCCCc1c[nH]c2ccc(F)cc12)CO3 (racemic) | 8 | 100 | 24 | 62 | – |
| CCN(CCCc1c[nH]c2ccc(F)cc12)C1COc2c(F)cc3c(c2C1)C(=O)NCC3 (racemic) | 15 | 92 | 4 | 10 | – |
| O=C1NCc2ccc3c(c21)CC(NCCCCc1c[nH]c2ccc(F)cc12)CO3 (racemic) | 20 | 96 | 22 | 284 | – |
| O=C1NCCc2cc(F)c3c(c21)CC(NCCCc1c[nH]c2ccc(F)cc12)CO3 (racemic) | 27 | 98 | 6 | 4 | – |
| N#Cc1ccc2[nH]cc(CCCCN(CC3CC3)C3COc4ccc5c(c4C3)C(=O)NC5)c2c1 (racemic) [listing 1 of 2 here] | 25 | – | 4 | – | 63 |

| SMILES | Ki [1] [nM] | Emax [2] [%] | Ki [3] [nM] | EC50 [4] [nM] | IC50 [4] [nM] |
| --- | --- | --- | --- | --- | --- |
| O=C1NCc2ccc3c(c21)CC(N(CCCc1c[nH]c2ccc(F)cc12)CC1CCCCC1)CO3 (racemic) | 1240 | – | – | – | – |
| CN(CCCc1c[nH]c2ccc(F)cc12)C1COc2ccc3c(c2C1)C(=O)NCC3 (racemic) | 17 | 99 | 23 | 26 | – |
| O=C1NCCc2ccc3c(c21)CC(N(CCCc1c[nH]c2ccc(F)cc12)CCC(F)(F)F)CO3 (racemic) | 340 | – | 966 | – | – |
| O=C1NCCc2ccc3c(c21)CC(NCCCc1c[nH]c2ccc(F)cc12)CO3 (racemic) | 10 | 87 | 44 | 25 | – |
| N#Cc1ccc2[nH]cc(CCCNC3COc4ccc5c(c4C3)C(=O)NC5)c2c1 (racemic) | 13 | 91 | 36 | 22 | – |
| O=C1NCc2ccc3c(c21)CC(N(CCCc1c[nH]c2ccc(F)cc12)CC1CC1)CO3 (racemic) [listing 1 of 2 here] | 15 | – | 6 | – | 223 |
| O=C1NCCc2ccc3c(c21)CC(N(CCCc1c[nH]c2ccc(F)cc12)C(=O)c1ccccc1)CO3 (racemic) | 671 | – | 1220 | – | – |
| N#Cc1ccc2[nH]cc(CCCCN(CC3CC3)C3COc4ccc5c(c4C3)C(=O)NC5)c2c1 (racemic) [listing 2 of 2 here] | – | 0 | – | – | – |
| O=C1NCc2ccc3c(c21)CC(N(CCCc1c[nH]c2ccc(F)cc12)CC1CC1)CO3 (racemic) [listing 2 of 2 here] | – | 0 | – | – | – |
| N#Cc1ccc2[nH]cc(CCCCN(CC3CC3)C3COc4ccc5c(c4C3)C(=O)NC5)c2c1 (single isomer, unassigned; (+)) [listing 1 of 2 here] | 12 | – | 31 | 19 | – |
| N#Cc1ccc2[nH]cc(CCCCN(CC3CC3)C3COc4ccc5c(c4C3)C(=O)NC5)c2c1 (single isomer, unassigned; (+)) [listing 2 of 2 here] | – | 100 | – | – | – |
| N#Cc1ccc2[nH]cc(CCCCN(CC3CC3)C3COc4ccc5c(c4C3)C(=O)NC5)c2c1 (single isomer, unassigned; (-)) [listing 1 of 2 here] | 17 | – | 10 | – | 203 |
| O=C1NCc2ccc3c(c21)CC(N(CCCc1c[nH]c2ccc(F)cc12)CC1CC1)CO3 (single isomer, unassigned; (-)) [listing 1 of 2 here] | 6 | – | 8 | – | 320 |
| N#Cc1ccc2[nH]cc(CCCCN(CC3CC3)C3COc4ccc5c(c4C3)C(=O)NC5)c2c1 (single isomer, unassigned; (-)) [listing 2 of 2 here] | – | 0 | – | – | – |
| O=C1NCc2ccc3c(c21)CC(N(CCCc1c[nH]c2ccc(F)cc12)CC1CC1)CO3 (single isomer, unassigned; (-)) [listing 2 of 2 here] | – | 0 | – | – | – |
| O=C1NCc2ccc3c(c21)CC(N(CCCc1c[nH]c2ccc(F)cc12)CC1CC1)CO3 (stereo in doubt; (+)-46) [listing 1 of 2 here] | 5 | – | 3 | 24 | – |
| O=C1NCc2ccc3c(c21)CC(N(CCCc1c[nH]c2ccc(F)cc12)CC1CC1)CO3 (stereo in doubt; (+)-46) [listing 2 of 2 here] | – | 84 | – | – | – |

From ChEMBL document CHEMBL1153150, “Synthesis and structure-activity relationship of novel lactam-fused chroman derivatives having dual affinity at the 5-HT(1A) receptor and the serotonin transporter” (Bioorg Med Chem Lett, 2010)
